Test results as given in PubChem BioAssay AID2060508 (Molecular Pharmacology Branch, DTP, NCI, 2025).

System: 454973-116-R2-J3-PDC spheroids, viability, % test/control
Test: Anticancer human tumor 454973-116-R2-J3-PDC patient-derived pancreatic carcinoma cell line growth inhibition [GQUAD]
Conditions: spheroids with HUVEC and MSC; for IC50: curve of first compound; for viability, T/C: stronger effect = lower value; active = viability on the fitted dose curve at most 10% of control; inactive = the rest
Description: DNA G-quadruplex Stabilizer Agents in Combinations in Complex Spheroids
A high-throughput screen of multi-cell type tumor spheroids was designed to identify active combinations of DNA G-quadruplex stabilizer agents and targeted small molecules. Complex spheroids include a stromal component modeled by human endothelial cells (HUVEC) and fibroblasts modeled by human mesenchymal stem cells (MSCs). The concentration ranges selected for each drug and investigational agent were based upon clinically achievable concentrations if the clinical Cmax of the agent was known.
Compounds. The drugs and investigational agents: pidnarulex (CX-5461; NSC782164), APTO-253 (NSC789042), BRACO-19 (NSC847499), peposertib (NSC802822), ceralasertib (NSC780249), elimusertib (NSC800525), camonsertib (NSC841442), AZD-1390 (NSC803789), olaparib (NSC753686), talazoparib (NSC767125), ART-558 (NSC835418), sotorasib (NSC818433), MRTX-1133 (NSC836407), SN-38 (NSC673596), topotecan (NSC609699), etoposide (NSC141540), doxorubicin (NSC123127), gemcitabine (NSC613327), 5-fluorouracil (NSC19893), paclitaxel (NSC125973), vemurafenib (NSC761431), panobinostat (NSC761190), R-306465 (JNJ-16241199; NSC773264), adavosertib (NSC754352), TP-3654 (NSC805149), carboplatin (NSC241240), KSQ-4279 (NSC840948), and staurosporine (NSC755774) were obtained from the National Cancer Institute (NCI) Developmental Therapeutics Program Chemical Repository (34). The FDA-approved anticancer drug set is available from the NCI Developmental Therapeutics Program. […] The stock solutions were prepared in dimethyl sulfoxide (DMSO, Sigma-Aldrich, St. Louis, MO, cat. D2650) at 800-fold the tested concentration and stored at -70 degrees C prior to their use. All drugs and investigational agents were tested over a range starting from a high concentration at or near the clinical Cmax and decreasing in half-log increments. If the clinical Cmax for an agent had not been determined, the highest concentration tested was 10 microM.
2.3 Cell Culture. All cells were maintained in an incubator at 37 degrees C and 5% CO2 with 95% humidity. The PDC lines were cultured according to standard operating procedures established by the NCI PDMR. All PDCs were thawed and cultured in Matrigel-coated flasks prepared with a working solution of 1X Ham's F-12 nutrient mix, without supplementation (Invitrogen, cat. 11765054), 100 U/mL penicillin-streptomycin (Invitrogen, cat. 15140122), and 2.5% Matrigel (Corning Inc., cat. 354248) for the first three passages. The 857933-349-R-J2-PDC line was cultured in 6C/Colon 1B media, which includes advanced DMEM/F-12 (Thermo Fisher Scientific, cat. 12634028), 10 mM HEPES (Thermo Fisher Scientific, cat. 15630080), 1X GlutaMAX supplement (Thermo Fisher Scientific, cat. 35050061), 0.1 mg/mL primocin (InvivoGen, cat. ant-pm-2), 10% defined fetal bovine serum, heat inactivated (HyClone Laboratories Inc., cat. SH30070.03HI), 50% L-WRN conditioned media (ATCC, cat. CRL-3276), 1.25 mM N-Acetyl-L-cysteine (Sigma-Aldrich, cat. A9165), 10 mM nicotinamide (Sigma-Aldrich, cat. N0636), 1X B-27 supplement (Thermo Fisher Scientific, cat. 17504044), 1X N-2 supplement (Thermo Fisher Scientific, cat. 17502048), 10 microM Y-27632 dihydrochloride (Tocris Bioscience, cat. 1254), and 50 ng/mL human EGF recombinant protein (Thermo Fisher Scientific, cat. PHG0311). The 485176-168-R4-J1-PDC line was cultured in Panc media, which includes all 6C/Colon 1B media components plus 100 ng/mL human FGF-10 (Thermo Fisher Scientific, cat. 100-26), 500 nM SB-431542 (Selleckchem, cat. S1067), and gastrin (Tocris, cat. 3006).
[…]
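Also: spheroids exposed to compounds for seven days.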

CC(C)n1c(=O)n(C)c2cnc3cc(F)c(-c4ccc(OCCCN5CCCCC5)nc4)cc3c21 + Cc1cnc(CNC(=O)c2c(=O)c3ccc(N4CCCN(C)CC4)nc3n3c2sc2ccccc23)cn1
active: viability, T/C (second compound 10 µM, first compound 0.0316 µM) 0.28% | viability, T/C (second compound 10 µM, first compound 0.1 µM) 0.31% | viability, T/C (second compound 10 µM, first compound 0.316 µM) 14% | viability, T/C (second compound 10 µM, first compound 1 µM) 0.33% | viability, T/C (second compound 10 µM, first compound 3.16 µM) 0.3% | viability, T/C (second compound 10 µM, first compound 10 µM) 0.25%
> 10 µM: IC50 (second compound 0.0316 µM) | IC50 (second compound 3.16 µM)
0.0397 µM: IC50 (second compound 1 µM)
inactive: viability, T/C (second compound 0.0316 µM, first compound 0.0316 µM) 76.6% | viability, T/C (second compound 0.0316 µM, first compound 0.1 µM) 53.5% | viability, T/C (second compound 0.0316 µM, first compound 0.316 µM) 59.6% | viability, T/C (second compound 0.0316 µM, first compound 1 µM) 52.9% | viability, T/C (second compound 0.0316 µM, first compound 3.16 µM) 56.8% | viability, T/C (second compound 0.0316 µM, first compound 10 µM) 52.3% | viability, T/C (second compound 0.1 µM, first compound 0.0316 µM) 43% | viability, T/C (second compound 0.1 µM, first compound 0.1 µM) 35.6% | viability, T/C (second compound 0.1 µM, first compound 0.316 µM) 36.5% | viability, T/C (second compound 0.1 µM, first compound 1 µM) 33.6% | viability, T/C (second compound 0.1 µM, first compound 3.16 µM) 39.5% | viability, T/C (second compound 0.1 µM, first compound 10 µM) 32.7% | viability, T/C (second compound 0.316 µM, first compound 0.0316 µM) 45.5% | viability, T/C (second compound 0.316 µM, first compound 0.1 µM) 49% | viability, T/C (second compound 0.316 µM, first compound 0.316 µM) 38.7% | viability, T/C (second compound 0.316 µM, first compound 1 µM) 38.8% | viability, T/C (second compound 0.316 µM, first compound 3.16 µM) 40.3% | viability, T/C (second compound 0.316 µM, first compound 10 µM) 33.7% | viability, T/C (second compound 1 µM, first compound 0.0316 µM) 52.4% | viability, T/C (second compound 1 µM, first compound 0.1 µM) 48.4% | viability, T/C (second compound 1 µM, first compound 0.316 µM) 46.9% | viability, T/C (second compound 1 µM, first compound 1 µM) 48.7% | viability, T/C (second compound 1 µM, first compound 3.16 µM) 51.8% | viability, T/C (second compound 1 µM, first compound 10 µM) 48.2% | viability, T/C (second compound 3.16 µM, first compound 0.0316 µM) 53.7% | viability, T/C (second compound 3.16 µM, first compound 0.1 µM) 65.8% | viability, T/C (second compound 3.16 µM, first compound 0.316 µM) 56.1% | viability, T/C (second compound 3.16 µM, first compound 1 µM) 57.4% | viability, T/C (second compound 3.16 µM, first compound 3.16 µM) 58.3% | viability, T/C (second compound 3.16 µM, first compound 10 µM) 44.4%
< 0.0316 µM: IC50 (second compound 0.1 µM) | IC50 (second compound 0.316 µM) | IC50 (second compound 10 µM)
